Assay results: patent publication US8022206B2 (OSI Pharmaceuticals, LLC, priority 2008, dated 2011)

Legend:
RON (human) = RON (human) (Homo sapiens, UniProt Q04912); assay: RON (human) AlphaScreen kinase assay, Km of ATP; format: biochemical; conditions: AlphaScreen, Km of ATP; read-out: RON biochemical IC50
Method in brief: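 Reaction was started with enzyme and run 30 min at RT. PT66 donor/acceptor beads in an EDTA-containing Tris pH 7.5 buffer were then added, and the signal was read after 1 h.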

MET (human) = MET (human) (Homo sapiens, UniProt P08581); assay: MET (human) AlphaScreen kinase assay, Km of ATP; format: biochemical; conditions: AlphaScreen, Km of ATP; read-out: Met biochemical IC50
MET (human), sequence (P08581 25-1390): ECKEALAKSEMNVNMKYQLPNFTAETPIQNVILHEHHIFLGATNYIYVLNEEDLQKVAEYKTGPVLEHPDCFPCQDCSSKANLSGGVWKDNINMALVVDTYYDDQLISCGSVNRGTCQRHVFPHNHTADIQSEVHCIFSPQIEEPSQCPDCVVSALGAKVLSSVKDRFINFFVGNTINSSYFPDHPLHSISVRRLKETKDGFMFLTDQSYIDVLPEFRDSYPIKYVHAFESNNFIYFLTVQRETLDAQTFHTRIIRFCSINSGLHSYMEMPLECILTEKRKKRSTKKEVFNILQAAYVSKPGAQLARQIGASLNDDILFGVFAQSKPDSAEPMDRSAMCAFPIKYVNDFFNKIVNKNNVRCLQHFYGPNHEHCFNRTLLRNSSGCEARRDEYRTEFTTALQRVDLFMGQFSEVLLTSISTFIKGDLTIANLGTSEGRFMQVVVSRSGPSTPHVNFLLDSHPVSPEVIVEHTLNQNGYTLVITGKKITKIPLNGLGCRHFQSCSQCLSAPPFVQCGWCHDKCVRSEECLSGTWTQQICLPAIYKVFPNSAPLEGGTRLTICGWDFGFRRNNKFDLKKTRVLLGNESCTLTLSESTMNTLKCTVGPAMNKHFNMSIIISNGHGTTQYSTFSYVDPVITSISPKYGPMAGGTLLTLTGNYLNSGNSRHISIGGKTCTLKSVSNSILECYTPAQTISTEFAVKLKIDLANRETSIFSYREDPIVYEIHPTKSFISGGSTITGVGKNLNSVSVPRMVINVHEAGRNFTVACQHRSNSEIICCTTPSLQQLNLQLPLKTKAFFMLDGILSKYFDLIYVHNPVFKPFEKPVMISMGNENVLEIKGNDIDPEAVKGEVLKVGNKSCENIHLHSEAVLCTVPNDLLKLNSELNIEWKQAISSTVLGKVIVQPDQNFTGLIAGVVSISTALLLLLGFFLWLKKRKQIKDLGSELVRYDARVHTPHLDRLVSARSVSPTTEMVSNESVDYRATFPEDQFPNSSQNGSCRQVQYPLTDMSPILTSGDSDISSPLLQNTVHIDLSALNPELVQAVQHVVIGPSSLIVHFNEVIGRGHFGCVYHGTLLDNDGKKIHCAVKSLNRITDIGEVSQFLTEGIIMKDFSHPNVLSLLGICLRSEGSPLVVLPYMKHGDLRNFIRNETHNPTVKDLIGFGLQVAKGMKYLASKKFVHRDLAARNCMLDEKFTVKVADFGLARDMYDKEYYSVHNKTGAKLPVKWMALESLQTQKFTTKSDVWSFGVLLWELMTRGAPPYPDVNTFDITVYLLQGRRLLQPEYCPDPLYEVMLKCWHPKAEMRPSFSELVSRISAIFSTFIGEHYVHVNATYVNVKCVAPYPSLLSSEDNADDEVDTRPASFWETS
Method in brief: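 Human MET at lot-optimised concentration in 50 mM Tris pH 7.4 buffer with 1 mM DTT, compound at 1% DMSO final; enzyme starts the reaction, 60 min at RT.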

RON (human), sequence (Q04912 25-1400): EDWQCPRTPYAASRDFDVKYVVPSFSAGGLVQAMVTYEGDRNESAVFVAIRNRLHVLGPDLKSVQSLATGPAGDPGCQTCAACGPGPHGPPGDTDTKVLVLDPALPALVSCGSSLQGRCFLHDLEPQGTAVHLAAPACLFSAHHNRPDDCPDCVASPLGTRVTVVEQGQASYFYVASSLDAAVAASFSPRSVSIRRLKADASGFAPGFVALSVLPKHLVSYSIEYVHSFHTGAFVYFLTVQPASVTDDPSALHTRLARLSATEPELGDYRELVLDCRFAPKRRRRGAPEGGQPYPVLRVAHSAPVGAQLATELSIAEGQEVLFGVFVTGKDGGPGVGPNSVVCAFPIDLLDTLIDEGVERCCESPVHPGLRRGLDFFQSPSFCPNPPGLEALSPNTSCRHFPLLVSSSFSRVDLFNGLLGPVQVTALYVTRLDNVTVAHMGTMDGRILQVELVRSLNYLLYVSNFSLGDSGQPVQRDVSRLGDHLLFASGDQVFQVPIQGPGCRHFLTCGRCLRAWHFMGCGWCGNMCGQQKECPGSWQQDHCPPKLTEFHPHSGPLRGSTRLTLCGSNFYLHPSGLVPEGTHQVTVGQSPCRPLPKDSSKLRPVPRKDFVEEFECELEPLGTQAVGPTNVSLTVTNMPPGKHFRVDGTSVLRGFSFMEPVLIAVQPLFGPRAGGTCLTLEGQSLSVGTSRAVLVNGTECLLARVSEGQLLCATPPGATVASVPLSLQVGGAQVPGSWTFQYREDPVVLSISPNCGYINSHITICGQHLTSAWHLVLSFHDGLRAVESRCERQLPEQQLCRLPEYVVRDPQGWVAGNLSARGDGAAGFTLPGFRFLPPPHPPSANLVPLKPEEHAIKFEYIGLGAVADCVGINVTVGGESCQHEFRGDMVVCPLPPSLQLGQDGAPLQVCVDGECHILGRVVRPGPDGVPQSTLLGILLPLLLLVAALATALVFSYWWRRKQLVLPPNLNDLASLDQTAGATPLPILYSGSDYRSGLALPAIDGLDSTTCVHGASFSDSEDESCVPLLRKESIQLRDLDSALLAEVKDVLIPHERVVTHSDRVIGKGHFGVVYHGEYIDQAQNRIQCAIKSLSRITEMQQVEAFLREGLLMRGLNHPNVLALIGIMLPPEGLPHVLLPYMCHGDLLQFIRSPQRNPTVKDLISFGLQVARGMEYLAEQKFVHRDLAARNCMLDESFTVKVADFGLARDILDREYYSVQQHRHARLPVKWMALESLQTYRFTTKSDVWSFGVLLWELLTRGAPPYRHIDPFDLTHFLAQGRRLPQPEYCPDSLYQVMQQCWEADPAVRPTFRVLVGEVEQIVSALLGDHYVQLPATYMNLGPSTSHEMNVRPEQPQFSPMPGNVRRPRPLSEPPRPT

Row | Compound | IC50 (RON (human)) | IC50 (MET (human))
1 | CC(Oc1c(N)ncc2c(-c3cnn(C4CCNCC4)c3)coc12)c1cccc(-c2ccn[nH]2)c1 (stereo not shown) [Example 446] | < 500 nM | 500 to 5000 nM
2 | CC(Oc1c(N)ncc2c(-c3cnn(C4CCNCC4)c3)coc12)c1nc2ccccc2[nH]1 (stereo not shown) [Example 403, 7-[1-(1H-Benzimidazol-2-yl)ethoxy]-3-(1-piperidin-4-yl-1H-pyrazol-4-yl)furo[3,2-c]pyridin-6-ylamine] | 500 to 5000 nM | 500 to 5000 nM
3 | CC(Cc1ccccc1)Oc1c(N)ncc2c(-c3cnn(C4CCNCC4)c3)coc12 (stereo not shown) [Example 405, 7-(1-Methyl-2-phenylethoxy)-3-(1-piperidin-4-yl-1H-pyrazol-4-yl)furo[3,2-c]pyridin-6-ylamine] | < 500 nM | < 500 nM
4 | C[C@@H](Oc1c(N)ncc2c(-c3csc(C(=O)NC(C)(C)C)c3)coc12)c1c(Cl)ccc(F)c1Cl [Example 315, 4-{6-Amino-7-[(R)-1-(2,6-dichloro-3-fluorophenyl)ethoxy]-furo[3,2-c]pyridin-3-yl}thiophene-2-carboxylic acid tert-butylamide] | 500 to 5000 nM | < 500 nM
5 | C[C@@H](Oc1c(N)ncc2c(-c3cc(C(=O)O)cs3)coc12)c1c(Cl)ccc(F)c1Cl [Example 325, 5-{6-Amino-7-[(R)-1-(2,6-dichloro-3-fluorophenyl)ethoxy]furo[3,2-c]pyridin-3-yl}thiophene-3-carboxylic acid] | 5000 to 20000 nM | 5000 to 20000 nM
6 | C[C@@H](Oc1c(N)ncc2c(-c3cccc(NS(=O)(=O)CCN(C)C)c3)coc12)c1c(Cl)ccc(F)c1Cl [Example 249, 2-Dimethylaminoethanesulfonic Acid (3-{6-amino-7-[(R)-1-(2,6-dichloro-3-fluorophenyl)ethoxy]furo[3,2-c]pyridin-3-yl}phenyl)amide] | 500 to 5000 nM | 500 to 5000 nM
7 | C[C@@H](Oc1c(N)ncc2c(-c3ccc(CN4CCN(C)CC4)s3)coc12)c1c(Cl)ccc(F)c1Cl [Example 218, 7-[(R)-1-(2,6-Dichloro-3-fluorophenyl)ethoxy]-3-[5-(4-methylpiperazin-1-ylmethyl)-thiophen-2-yl]furo[3,2-c]pyridin-6-ylamine] | < 500 nM | < 500 nM
8 | CNC(=O)c1ccc(-c2coc3c(O[C@H](C)c4c(Cl)ccc(F)c4Cl)c(N)ncc23)cc1 [Example 289, 4-{6-Amino-7-[(R)-1-(2,6-dichloro-3-fluorophenyl)ethoxy]furo[3,2-c]pyridin-3-yl}-N-methylbenzamide] | 500 to 5000 nM | 500 to 5000 nM
9 | C[C@@H](Oc1c(N)ncc2c(-c3ccc(NC(N)=O)cc3)coc12)c1c(Cl)ccc(F)c1Cl [Example 108, (4-{6-Amino-7-[(R)-1-(2,6-dichloro-3-fluorophenyl)ethoxy]furo[3,2-c]pyridin-3-yl}phenyl)urea] | 500 to 5000 nM | 500 to 5000 nM
10 | C[C@@H](Oc1c(N)ncc2c(C3=CCN(C(=O)[C@H](O)c4ccccc4)CC3)coc12)c1c(Cl)ccc(F)c1Cl [Example 266, (2R)-1-[4-{6-Amino-7-[(1R)-1-(2,6-dichloro-3-fluorophenyl)ethoxy]furo[3,2-c]pyridin-3-yl}-3,6-dihydropyridin-1(2H)-yl]-2-hydroxy-2-phenylethanone] | 500 to 5000 nM | 500 to 5000 nM
11 | CC(Oc1c(N)ncc2c(-c3cnn(C4CCNCC4)c3)coc12)c1cccc(C#N)c1 (stereo not shown) [Example 393, 3-{1-[6-Amino-3-(1-piperidin-4-yl-1H-pyrazol-4-yl)furo[3,2-c]pyridin-7-yloxy]ethyl}benzonitrile] | 500 to 5000 nM | < 500 nM
12 | C[C@@H](Oc1c(N)ncc2c(C(=O)NCC3CCOCC3)coc12)c1c(Cl)ccc(F)c1Cl [Example 187, 6-Amino-7-[(R)-1-(2,6-dichloro-3-fluorophenyl)ethoxy]furo[3,2-c]pyridine-3-carboxylic acid (tetrahydropyran-4-ylmethyl)amide] | 500 to 5000 nM | 500 to 5000 nM
13 | C[C@H](Cc1ccccc1)Oc1c(N)ncc2c(-c3cnn(C4CCNCC4)c3)coc12 [Example 415, 7-((R)-1-Methyl-2-phenylethoxy)-3-(1-piperidin-4-yl-1H-pyrazol-4-yl)furo[3,2-c]pyridin-6-ylamine] | 500 to 5000 nM | 500 to 5000 nM
14 | C[C@@H](Oc1c(N)ncc2c(-c3ccn4ccnc4c3)coc12)c1c(Cl)ccc(F)c1Cl [Example 82, 7-[(R)-1-(2,6-Dichloro-3-fluorophenyl)ethoxy]-3-imidazo[1,2-a]pyridin-7-ylfuro[3,2-c]pyridin-6-ylamine] | 500 to 5000 nM | < 500 nM
15 | C[C@@H](Oc1c(N)ncc2c(-c3cc(C(=O)NC(C)(C)C)cs3)coc12)c1c(Cl)ccc(F)c1Cl [Example 331, 5-{6-Amino-7-[(R)-1-(2,6-dichloro-3-fluorophenyl)ethoxy]furo[3,2-c]pyridin-3-yl}thiophene-3-carboxylic acid tert-butylamide] | 5000 to 20000 nM | 500 to 5000 nM
16 | C[C@@H](Oc1c(N)ncc2c(-c3cccc(C(=O)N4CCN(CCO)CC4)c3)coc12)c1c(Cl)ccc(F)c1Cl [Example 98, (3-{6-Amino-7-[(R)-1-(2,6-dichloro-3-fluorophenyl)ethoxy]-furo[3,2-c]pyridin-3-yl}phenyl)-[4-(2-hydroxyethyl)piperazin-1-yl]methanone] | 500 to 5000 nM | < 500 nM
17 | CCN1CC2CC1CN2C(=O)N1CC=C(c2coc3c(O[C@H](C)c4c(Cl)ccc(F)c4Cl)c(N)ncc23)CC1 (stereo partly drawn) [Example 222, (4-{6-Amino-7-[(R)-1-(2,6-dichloro-3-fluorophenyl)ethoxy]-furo[3,2-c]pyridin-3-yl}-3,6-dihydro-2H-pyridin-1-yl)-(5-ethyl-2,5-diazabicyclo[2.2.1]hept-2-yl)-methanone] | < 500 nM | < 500 nM
18 | CC(C)N1CC=C(c2coc3c(O[C@H](C)c4c(Cl)ccc(F)c4Cl)c(N)ncc23)CC1 [Example 45, 7-[(R)-1-(2,6-Dichloro-3-fluorophenyl)-ethoxy]-3-(1-isopropyl-1,2,3,6-tetrahydropyridin-4-yl)-furo[3,2-c]pyridin-6-ylamine] | < 500 nM | < 500 nM
19 | COc1cccc(-c2coc3c(O[C@H](C)c4c(Cl)ccc(F)c4Cl)c(N)ncc23)c1 [Example 60, 7-[(R)-1-(2,6-Dichloro-3-fluorophenyl)ethoxy]-3-(3-methoxy-phenyl)furo[3,2-c]pyridin-6-ylamine] | 5000 to 20000 nM | 500 to 5000 nM

Second part, the molecule after the results:

Row | IC50 (RON (human)) | IC50 (MET (human)) | Compound
20 | 500 to 5000 nM | 500 to 5000 nM | C[C@@H](Oc1c(N)ncc2c(C3=CCN(C(=O)C(C)(C)O)CC3)coc12)c1c(Cl)ccc(F)c1Cl [Example 228, 1-(4-{6-Amino-7-[(R)-1-(2,6-dichloro-3-fluorophenyl)ethoxy]-furo[3,2-c]pyridin-3-yl}-3,6-dihydro-2H-pyridin-1-yl)-2-hydroxy-2-methylpropan-β-one]
21 | 500 to 5000 nM | 500 to 5000 nM | C[C@@H](Oc1c(N)ncc2c(-c3cnc(N4CCOCC4)nc3)coc12)c1c(Cl)ccc(F)c1Cl [Example 283, 7-[(R)-1-(2,6-Dichloro-3-fluorophenyl)ethoxy]-3-(2-morpholin-4-ylpyrimidin-5-yl)furo[3,2-c]pyridin-6-ylamine]
22 | 500 to 5000 nM | < 500 nM | COc1cc(Cl)cc(Cl)c1C(C)Oc1c(N)ncc2c(-c3cnn(C4CCNCC4)c3)coc12 (stereo not shown) [Example 360, 7-[1-(2,4-Dichloro-6-methoxyphenyl)ethoxy]-3-(1-piperidin-4-yl-1H-pyrazol-4-yl)furo[3,2-c]pyridin-6-ylamine]
23 | 500 to 5000 nM | 500 to 5000 nM | C[C@@H](Oc1c(N)ncc2c(C3=CCN(C(=O)c4cnc[nH]4)CC3)coc12)c1c(Cl)ccc(F)c1Cl [Example 233, (4-{6-Amino-7-[(R)-1-(2,6-dichloro-3-fluorophenyl)ethoxy]-furo[3,2-c]pyridin-3-yl}-3,6-dihydro-2H-pyridin-1-yl)-(3H-imidazol-4-yl)-methanone]
24 | 500 to 5000 nM | < 500 nM | CC(Oc1c(N)ncc2c(-c3cnn(C4CCNCC4)c3)coc12)c1ccc(Cl)cc1Cl (stereo not shown) [Example 382, 7-[1-(2,4-Dichlorophenyl)ethoxy]-3-(1-piperidin-4-yl-1H-pyrazol-4-yl)furo[3,2-c]pyridin-6-ylamine]
25 | 500 to 5000 nM | < 500 nM | C[C@@H](Oc1c(N)ncc2c(C(=O)NC3CCN(C)CC3)coc12)c1c(Cl)ccc(F)c1Cl [Example 186, 6-Amino-7-[(R)-1-(2,6-dichloro-3-fluorophenyl)ethoxy]furo[3,2-c]pyridine-3-carboxylic acid (1-methylpiperidin-4-yl)amide]
26 | 500 to 5000 nM | 500 to 5000 nM | C[C@@H](Oc1c(N)ncc2c(-c3cnn(C4CCN(C=O)CC4)c3)coc12)c1c(Cl)ccc(F)c1Cl [Example 277, 4-(4-{6-Amino-7-[(1R)-1-(2,6-dichloro-3-fluorophenyl)ethoxy]furo[3,2-c]pyridin-3-yl}-1H-pyrazol-1-yl)piperidine-1-carbaldehyde]
27 | 500 to 5000 nM | 500 to 5000 nM | C[C@@H](Oc1c(N)ncc2c(-c3ccc(C=O)s3)coc12)c1c(Cl)ccc(F)c1Cl [Example 210, 5-{6-Amino-7-[(R)-1-(2,6-dichloro-3-fluorophenyl)ethoxy]-furo[3,2-c]pyridin-3-yl}-thiophene-2-carbaldehyde]
28 | < 500 nM | < 500 nM | C[C@@H](Oc1c(N)ncc2c(C3=CCN(C(=O)[C@H]4CCCN4)CC3)coc12)c1c(Cl)ccc(F)c1Cl [Example 242, (4-{6-Amino-7-[(R)-1-(2,6-dichloro-3-fluorophenyl)ethoxy]-furo[3,2-c]pyridin-3-yl}-3,6-dihydro-2H-pyridin-1-yl)-(R)-pyrrolidin-2-ylmethanone]
29 | 500 to 5000 nM | 500 to 5000 nM | CC(Oc1c(N)ncc2c(-c3cnn(C4CCNCC4)c3)coc12)c1ccc(F)cc1 (stereo not shown) [Example 376, 7-[1-(4-Fluorophenyl)ethoxy]-3-(1-piperidin-4-yl-1H-pyrazol-4-yl)furo[3,2-c]pyridin-6-ylamine]
